Results as given in ChEMBL document CHEMBL3785008, “Piperine in food: interference in the pharmacokinetics of phenytoin” (Eur J Drug Metab Pharmacokinet, 2001).
Blank lines part the entries; values can stand above or below the compound they belong to.

Key:
[1] = system: Homo sapiens; assay: Volume of distribution in healthy adult human subjects at 300 mg, po by HPLC method; assay type: ADME, organism-based; settings: in vivo
[2] = AUC (0 to 48 hrs) in healthy adult human subjects at 300 mg, po by HPLC method; assay type: ADME, organism-based; parameters: time < 48 hr, dose 300 mg, route oral; settings: in vivo
[3] = system: Homo sapiens; assay: Drug lag time in healthy adult human subjects at 300 mg, po dosed 30 minutes after ingestion of soup (melahu rasam) with black pepper by HPLC method; assay type: ADME, organism-based; settings: in vivo, 0.5 h
[4] = AUC (0 to 10 hrs) in normal Swiss albino mouse at 10 mg, po by HPLC method; assay type: ADME, organism-based; parameters: time < 10 hr, dose 10 mg, route oral; settings: in vivo
[5] = Mean residence time in healthy adult human subjects at 300 mg, po dosed 30 minutes after ingestion of soup (melahu rasam) with black pepper by HPLC method; assay type: ADME, organism-based; settings: in vivo
[6] = Elimination half life in healthy adult human subjects at 300 mg, po dosed 30 minutes after ingestion of soup (melahu rasam) with black pepper by HPLC method; assay type: ADME, organism-based; settings: in vivo, read-out: beta t1/2 (converted)
[7] = Clearance in healthy adult human subjects at 300 mg, po dosed 30 minutes after ingestion of soup (melahu rasam) with black pepper by HPLC method; assay type: ADME, organism-based; settings: in vivo
[8] = AUC (0 to infinity) in healthy adult human subjects at 300 mg, po by HPLC method; assay type: ADME, organism-based; parameters: dose 300 mg, route oral, time infinity; settings: in vivo
[9] = Cmax in healthy adult human subjects at 300 mg, po by HPLC method; assay type: ADME, organism-based; parameters: dose 300 mg, route oral; settings: in vivo
[10] = Tmax in healthy adult human subjects at 300 mg, po dosed 30 minutes after ingestion of soup (melahu rasam) with black pepper by HPLC method; assay type: ADME, organism-based; settings: in vivo
[11] = Cmax in healthy adult human subjects at 300 mg, po dosed 30 minutes after ingestion of soup (melahu rasam) with black pepper by HPLC method; assay type: ADME, organism-based; parameters: dose 300 mg, route oral; settings: in vivo
[12] = system: Homo sapiens; assay: Volume of distribution in healthy adult human subjects at 300 mg, po dosed 30 minutes after ingestion of soup (melahu rasam) with black pepper by HPLC method; assay type: ADME, organism-based; settings: in vivo, 0.5 h
[13] = Clearance in healthy adult human subjects at 300 mg, po by HPLC method; assay type: ADME, organism-based; settings: in vivo
[14] = system: Homo sapiens; assay: Drug absorption in healthy adult human subjects at 300 mg, po dosed 30 minutes after ingestion of soup (melahu rasam) with black pepper by HPLC method; assay type: ADME, organism-based; settings: in vivo, 0.5 h
[15] = Tmax in healthy adult human subjects at 300 mg, po by HPLC method; assay type: ADME, organism-based; settings: in vivo
[16] = AUC (0 to 48 hrs) in healthy adult human subjects at 300 mg, po dosed 30 minutes after ingestion of soup (melahu rasam) with black pepper by HPLC method; assay type: ADME, organism-based; parameters: time < 48 hr, dose 300 mg, route oral; settings: in vivo
[17] = Mean residence time in healthy adult human subjects at 300 mg, po by HPLC method; assay type: ADME, organism-based; settings: in vivo
[18] = system: Homo sapiens; assay: Drug lag time in healthy adult human subjects at 300 mg, po by HPLC method; assay type: ADME, organism-based; settings: in vivo
[19] = AUC (0 to infinity) in healthy adult human subjects at 300 mg, po dosed 30 minutes after ingestion of soup (melahu rasam) with black pepper by HPLC method; assay type: ADME, organism-based; parameters: dose 300 mg, time infinity, route oral; settings: in vivo
[20] = system: Mus musculus; assay: Ratio of drug level in 0.6 mg, po piperine pre-treated Swiss albino mouse at 10 mg, po to drug level in normal Swiss albino mouse at 10 mg, po; assay type: ADME, organism-based; settings: in vivo
[21] = Elimination half life in healthy adult human subjects at 300 mg, po by HPLC method; assay type: ADME, organism-based; settings: in vivo, read-out: beta t1/2 (converted)
[22] = AUC (0 to 10 hrs) in 0.6 mg, po piperine pre-treated Swiss albino mouse at 10 mg, po by HPLC method; assay type: ADME, organism-based; parameters: dose 0.6 mg, time < 10 hr, route oral; settings: in vivo
[23] = system: Homo sapiens; assay: Drug absorption in healthy adult human subjects at 300 mg, po by HPLC method; assay type: ADME, organism-based; settings: in vivo
[24] = Drug excretion in human urine assessed as hydroxyphenylphenylhydantoin and glucuronide conjugate level; assay type: ADME, tissue-based
[25] = Cmax in healthy adult human subjects after consumption of 44 mg equivalent of piperine in form of pepper in soup (melahu rasam) by HPLC method; assay type: ADME, organism-based; parameters: dose 44 mg; settings: in vivo, po
[26] = Tmax in Swiss albino mouse serum at 0.3 mg, po by HPLC method; assay type: ADME, organism-based
[27] = Drug elimination rate constant in healthy adult human subjects after consumption of 44 mg equivalent of piperine in form of pepper in soup (melahu rasam) by HPLC method; assay type: ADME, organism-based; settings: in vivo, po
[28] = AUC (0 to infinity) in healthy adult human subjects after consumption of 44 mg equivalent of piperine in form of pepper in soup (melahu rasam) by HPLC method; assay type: ADME, organism-based; parameters: dose 44 mg, time infinity; settings: in vivo, po
[29] = Tmax in healthy adult human subjects after consumption of 44 mg equivalent of piperine in form of pepper in soup (melahu rasam) by HPLC method; assay type: ADME, organism-based; settings: in vivo, po
[30] = Cmax in Swiss albino mouse serum at 0.3 mg, po by HPLC method; assay type: ADME, organism-based; parameters: dose 0.3 mg, route oral
[31] = AUC (0 to 12.5 hrs) in healthy adult human subjects after consumption of 44 mg equivalent of piperine in form of pepper in soup (melahu rasam) by HPLC method; assay type: ADME, organism-based; parameters: dose 44 mg, time < 12.5 hr; settings: in vivo, po
[32] = organism: Homo sapiens; assay: Drug absorption rate constant in healthy adult human subjects after consumption of 44 mg equivalent of piperine in form of pepper in soup (melahu rasam) by HPLC method; assay type: ADME, organism-based; settings: in vivo, po

- Vd [1]: 65.02 L
- AUC(0-t) at 48 h [2]: 102 µg·h/mL
- Tlag [3]: 0.168 h
- AUC(0-t) at 10 h [4]: 716 µg·h/mL
- MRT [5]: 70.9 h
- half-life [6]: 49.7 h
- CL/F [7]: 15.9 mL/min
- AUC(0-inf) [8]: 143 µg·h/mL
- Cmax [9]: 3820 ng/mL
- Tmax [10]: 3.38 h
- Cmax [11]: 4310 ng/mL
- Vd [12]: 64.58 L
- CL/F [13]: 41.3 mL/min
- ka [14]: 1.177 h⁻¹
- Tmax [15]: 5.32 h
- AUC(0-t) at 48 h [16]: 153 µg·h/mL
- MRT [17]: 34.2 h
- Tlag [18]: 0.655 h
- AUC(0-inf) [19]: 332 µg·h/mL
- Ratio [20]: 1.8
- half-life [21]: 22.5 h
- AUC(0-t) at 10 h [22]: 891 µg·h/mL
- ka [23]: 0.666 h⁻¹
SMILES: O=C1N=C([O-])NC1(c1ccccc1)c1ccccc1.[Na+] [PHENYTOIN SODIUM]

- Drug excretion [24]: 60%
SMILES: O=C1NC(=O)C(c2ccccc2)(c2ccccc2)N1 [PHENYTOIN]

- Cmax [25]: 400 ng/mL
- Tmax [26]: 6 h
- k el [27]: 2.22e-05 s⁻¹
- AUC(0-inf) [28]: 5.3 µg·h/mL
- Tmax [29]: 2.5 h
- Cmax [30]: 5470 ng/mL
- AUC(0-t) at 12.5 h [31]: 3.37 µg·h/mL
- ka [32]: 1.41 h⁻¹
SMILES: O=C(/C=C/C=C/c1ccc2c(c1)OCO2)N1CCCCC1 [PIPERINE]
